In this assay the test system is SIVmac251. The assay can be described thus: On-ART viremia (latency reversal) during AZD5582 treatment of SIV-infected, ART-suppressed infant RMs. Format: in vivo, rhesus macaque (Macaca mulatta). An excerpt:
In this study, latency reversal was defined as a plasma SIV RNA level above 60 copies/mL during AZD5582 treatment in the presence of continued daily ART (or, “on-ART viremia”). […] On-ART viremia peaked at 771 copies/mL in RVf20 2 days post-dose 9. […] This low-level viremia contrasts, however, with the sustained suppression below 60 copies/mL in the 10 months before AZD5582 treatment in these 3 infants (Fig. 1B).
Twelve infant, Indian RMs (Macaca mulatta), with the exclusion of Mamu B*08- and B*17-positive animals, were enrolled in this study. The animals were born at the Yerkes National Primate Research Center (YNPRC) to dams housed in indoor/outdoor group housing. The infants were removed from the dams when they were approximately 2 weeks old and transferred to an indoor nursery, where they were housed in social pairs with either full contact or protected contact for the duration of the study. The infants were fed in accordance with the YNPRC standard operating procedures (SOPs) for NHP feeding. After being removed from the dam, infants were fed center-approved milk replacer (Similac Advance, OptiGro Infant Formula with Iron and/or Similac Soy Isomil OptiGro Infant Formula with Iron; Abbott Nutrition, Columbus, OH) until 14 weeks of age. Infants were provided softened standard primate jumbo chow biscuits (Jumbo Monkey Diet 5037; Purina Mills, St. Louis, MO) and a portion of orange starting between 2 to 4 weeks of age. As animals aged additional enrichment of various fresh produce items were provided daily. The animals were orally infected at 4 to 5 weeks of age with two consecutive doses of 10^5 TCID50 (50% tissue culture infectious doses) of SIVmac251. Three infants required multiple weekly 2-dose challenges before successful infection (totaling up to three challenges). Eight historical controls that followed the same regimen were included in this study. Yerkes National Primate Research Center is accredited by both the U.S. Department of Agriculture (USDA) and by the Association for Assessment and Accreditation of Laboratory Animal Care (AAALAC). All animal procedures were performed in accordance with guidelines established by the Emory University Institutional Animal Care and Use Committee Guidelines and those set up by the NIH’s Guide for the Care and Use of Laboratory Animals, 8th edition.
The 12 RM infants were treated with a potent three-drug ART regimen initiated at 4 weeks postinfection. The preformulation ART cocktail contained two reverse transcriptase inhibitors, 5.1 mg/kg tenofovir disoproxil fumarate (TDF) and 40 mg/kg emtricitabine (FTC), plus 2.5 mg/kg of the integrase inhibitor dolutegravir (DTG). This ART cocktail was administered once daily at […] via the subcutaneous route.
The IAPi AZD5582 was reconstituted to 0.4 mg/mL in 10% Captisol within 1 week of administration as previously described ([17]). Monkeys assigned to the experimental intervention group received 10 administrations of 0.1 mg/kg AZD5582 by intravenous (i.v.) infusion with an inline filter for 30 minutes every week for 10 weeks.
Plasma viral quantification was performed as described previously ([12]). The frozen cell pellet was lysed with proteinase K (100 μg/mL in 10 mM Tris-HCl pH 8) for 1h at 56°C. Quantification of SIVmac gag DNA was performed by quantitative PCR (qPCR) using the 5′ nuclease (TaqMan) assay with an ABI7500 system (PerkinElmer Life Sciences). The sequence of the forward primer for SIVmac gag was 5′-[…]-3′, the reverse primer sequence was 5′-[…]-3′, and the probe sequence was 5′-6-carboxyfluorescein (FAM)-[…]-6-carboxytetramethylrhodamine (TAMRA)-3′. 7.5 μL of cell lysate were mixed in a 50 μL reaction mixture containing 1× Platinum Buffer, 3.5 mM MgCl2, 0.2 mM dNTP, primers 200 nM, probe 150 nM, and 2U Platinum Taq. For cell number quantification, quantitative PCR was performed simultaneously for monkey albumin gene copy number. […]

Setting [1] is: 10 weekly doses 0.1 mg/kg i.v., LOD 60 copies/mL.

1 compound from article PMC9006931, “Altered Response Pattern following AZD5582 Treatment of SIV-Infected, ART-Suppressed Rhesus Macaque Infants” (Journal of Virology, 2022) can be followed below.

On to `CN[C@@H](C)C(=O)N[C@H](C(=O)N1CCC[C@H]1C(=O)N[C@H]1c2ccccc2C[C@H]1OCC#CC#CCO[C@@H]1Cc2ccccc2[C@@H]1NC(=O)[C@@H]1CCCN1C(=O)[C@@H](NC(=O)[C@H](C)NC)C1CCCCC1)C1CCCCC1` [AZD5582], for which the “First instance of latency reversal, time after the 4th dose” value worked out at 48 h and the “Start of on-ART viremia, time post-dose 4” value was 3 days. Besides, under setting [1], the “SIV reactivation, per animal (RMs with on-ART viremia above LOD)” value is reported as 5/8 and the “SIV reactivation, per animal (percent of RMs with on-ART viremia)” value is 63%. In addition, the “SIV reactivation, events >60 copies/ml (percent of measurements)” value (135 measurements in the 5 RMs with on-ART viremia) is listed as 6%. The “Peak on-ART viremia” value (RVf20, 2 days post-dose 9) is listed as 771 copies/mL. In addition, the “SIV reactivation, events >60 copies/ml (measurements above LOD)” value (of 135 viral load measurements in the 5 RMs with on-ART viremia) is 8.
